Legend:
[1] = logP by HPLC on reversed-phase column (C 18), EEC Directive 79/831 Annex V.A8; format: physicochemical
Description: In table 1, the logP values were determined in accordance with EEC Directive 79/831 Annex V.A8 by HPLC (High Performance Liquid Chromatography) on a reversed-phase column (C 18), using the method described below: Temperature: 40° C.; […]

Alternaria solani = assay: In vivo preventive test on Alternaria solani (tomato); conditions: 500 ppm of active ingredient, evaluated 7 days after inoculation
Description: One day after this treatment, the plants are inoculated with an aqueous spore suspension of Alternaria solani.

Pyrenophora teres = assay: In vivo preventive test on Pyrenophora teres (barley); conditions: 500 ppm of active ingredient, evaluated 7-9 days after inoculation
Description: One day after this treatment, the plants are inoculated with an aqueous spore suspension of Pyrenophora teres.

aflatoxines production = assay: microbe, parasite or virus in culture; format: cell-based, Aspergillus parasiticus; conditions: 50 μM
Fusarium graminearum = assay: microbe, parasite or virus in culture; format: cell-based; conditions: 50 μM

CC(CNC(=O)c1c(C(F)F)nn(C)c1Cl)c1c(F)cccc1F (centres unmarked) [Example 29]
logP [1]: 2.92
Efficacy (Alternaria solani): 100%
Efficacy (Pyrenophora teres): 100%
% Inhibition of Aflatoxin at 50 μM (aflatoxines production): 100%
% Inhibition of fungal growth at 50 μM (Fusarium graminearum): 82%

CC(C)C(CNC(=O)c1c(C(F)F)nn(C)c1Cl)c1ccc(Cl)cc1 (centres unmarked) [Example 59]
logP [1]: 3.94
Efficacy (Alternaria solani): 100%
Efficacy (Pyrenophora teres): 100%
% Inhibition of Aflatoxin at 50 μM (aflatoxines production): 100%
% Inhibition of fungal growth at 50 μM (Fusarium graminearum): 83%

CN(CCc1ccc(F)cc1)C(=O)c1c(C(F)F)nn(C)c1F [Example 22]
logP [1]: 2.50
Efficacy (Alternaria solani): 100%
Efficacy (Pyrenophora teres): 100%
% Inhibition of Aflatoxin at 50 μM (aflatoxines production): 100%
% Inhibition of fungal growth at 50 μM (Fusarium graminearum): 100%

CC(CNC(=O)c1c(C(F)F)nn(C)c1F)c1cccc(C(F)(F)F)c1 (centres unmarked) [Example 126]
logP [1]: 3.23
Efficacy (Alternaria solani): 90%
Efficacy (Pyrenophora teres): 100%
% Inhibition of Aflatoxin at 50 μM (aflatoxines production): 100%
% Inhibition of fungal growth at 50 μM (Fusarium graminearum): 98%

Cn1nc(C(F)F)c(C(=O)N(C[Si](C)(C)c2ccsc2)C2CC2)c1Cl [Example 247]
logP [1]: 3.71
Efficacy (Alternaria solani): 94%
Efficacy (Pyrenophora teres): 100%
% Inhibition of Aflatoxin at 50 μM (aflatoxines production): 100%
% Inhibition of fungal growth at 50 μM (Fusarium graminearum): 100%

CN(CCc1ccccc1Cl)C(=O)c1c(C(F)F)nn(C)c1F [Example 35]
logP [1]: 2.76
Efficacy (Alternaria solani): 100%
Efficacy (Pyrenophora teres): 100%
% Inhibition of Aflatoxin at 50 μM (aflatoxines production): 100%
% Inhibition of fungal growth at 50 μM (Fusarium graminearum): 100%

Cn1nc(C(F)F)c(C(=O)NCCc2c(Cl)cccc2Cl)c1F [Example 117]
logP [1]: 3.00
Efficacy (Alternaria solani): 95%
Efficacy (Pyrenophora teres): 100%
% Inhibition of Aflatoxin at 50 μM (aflatoxines production): 100%
% Inhibition of fungal growth at 50 μM (Fusarium graminearum): 100%

CC(CNC(=O)c1c(C(F)F)nn(C)c1Cl)c1ccccc1Cl (centres unmarked) [Example 40]
logP [1]: 3.15
Efficacy (Alternaria solani): 100%
Efficacy (Pyrenophora teres): 94%
% Inhibition of Aflatoxin at 50 μM (aflatoxines production): 99%
% Inhibition of fungal growth at 50 μM (Fusarium graminearum): 78%

Cn1nc(C(F)F)c(C(=O)NCCc2ccc(Oc3ccccc3)cc2)c1F [Example 152]
logP [1]: 3.41
Efficacy (Alternaria solani): 95%
Efficacy (Pyrenophora teres): 100%
% Inhibition of Aflatoxin at 50 μM (aflatoxines production): 100%
% Inhibition of fungal growth at 50 μM (Fusarium graminearum): 82%

Cn1nc(C(F)F)c(C(=O)NCCc2ccccc2Cl)c1F [Example 32]
logP [1]: 2.69
Efficacy (Alternaria solani): 95%
Efficacy (Pyrenophora teres): 100%
% Inhibition of Aflatoxin at 50 μM (aflatoxines production): 100%
% Inhibition of fungal growth at 50 μM (Fusarium graminearum): 99%

CC(C)C(CNC(=O)c1c(C(F)F)nn(C)c1F)c1ccc(Cl)cc1 (centres unmarked) [Example 60]
logP [1]: 3.78
Efficacy (Alternaria solani): 100%
Efficacy (Pyrenophora teres): 100%
% Inhibition of Aflatoxin at 50 μM (aflatoxines production): 100%
% Inhibition of fungal growth at 50 μM (Fusarium graminearum): 96%

Cn1nc(C(F)F)c(C(=O)NC[Si](C)(C)c2cccc(Cl)c2)c1Cl [Example 236]
logP [1]: 3.71
Efficacy (Alternaria solani): 100%
Efficacy (Pyrenophora teres): 100%
% Inhibition of Aflatoxin at 50 μM (aflatoxines production): 99%
% Inhibition of fungal growth at 50 μM (Fusarium graminearum): 84%

CC(CNC(=O)c1c(C(F)F)nn(C)c1Cl)c1cccc(Cl)c1 (centres unmarked) [Example 52]
logP [1]: 3.21
Efficacy (Alternaria solani): 100%
Efficacy (Pyrenophora teres): 100%
% Inhibition of Aflatoxin at 50 μM (aflatoxines production): 100%
% Inhibition of fungal growth at 50 μM (Fusarium graminearum): 83%

Cn1nc(C(F)F)c(C(=O)NCCc2csc3c2CCCC3)c1Cl [Example 169]
logP [1]: 3.52
Efficacy (Alternaria solani): 80%
Efficacy (Pyrenophora teres): 100%
% Inhibition of Aflatoxin at 50 μM (aflatoxines production): 91%
% Inhibition of fungal growth at 50 μM (Fusarium graminearum): 75%

Cn1nc(C(F)F)c(C(=O)NCCc2cccc(Cl)c2)c1F [Example 47]
logP [1]: 2.75
Efficacy (Alternaria solani): 100%
Efficacy (Pyrenophora teres): 100%
% Inhibition of Aflatoxin at 50 μM (aflatoxines production): 100%
% Inhibition of fungal growth at 50 μM (Fusarium graminearum): 100%

CN(CCc1ccccc1Cl)C(=O)c1c(C(F)F)nn(C)c1Cl [Example 36]
logP [1]: 2.92
Efficacy (Alternaria solani): 100%
Efficacy (Pyrenophora teres): 95%
% Inhibition of Aflatoxin at 50 μM (aflatoxines production): 100%
% Inhibition of fungal growth at 50 μM (Fusarium graminearum): 94%

CN(CCc1ccccc1)C(=O)c1c(C(F)F)nn(C)c1F [Example 4]
logP [1]: 2.43
Efficacy (Alternaria solani): 100%
Efficacy (Pyrenophora teres): 95%
% Inhibition of Aflatoxin at 50 μM (aflatoxines production): 100%
% Inhibition of fungal growth at 50 μM (Fusarium graminearum): 91%

CC(Cc1ccccc1F)N(C(=O)c1c(C(F)F)nn(C)c1Cl)C1CC1 (centres unmarked) [Example 20]
logP [1]: 3.52
Efficacy (Alternaria solani): 95%
Efficacy (Pyrenophora teres): 100%
% Inhibition of Aflatoxin at 50 μM (aflatoxines production): 86%
% Inhibition of fungal growth at 50 μM (Fusarium graminearum): 69%

Cn1nc(C(F)F)c(C(=O)NC[Si](C)(C)c2cc(Cl)cc(Cl)c2)c1Cl [Example 243]
logP [1]: 4.27
Efficacy (Alternaria solani): 95%
Efficacy (Pyrenophora teres): 100%
% Inhibition of Aflatoxin at 50 μM (aflatoxines production): 99%
% Inhibition of fungal growth at 50 μM (Fusarium graminearum): 84%
